Experiment in all cases: Kinase panel profiling at 1 µmol/L (MSA or IMAP), percentage inhibition
Format in all cases: biochemical

The target of assay [1] is panel of 255 wild-type kinases (Homo sapiens, UniProt O75676). The settings on record: MSK2; 1 µmol/L single concentration; read-out: %-inhibition, MSK2.
The target of assay [2] is panel of 255 wild-type kinases (Homo sapiens, UniProt Q04759). The conditions noted are these: kinase PKCθ; 1 µmol/L single concentration; read-out: %-inhibition at 1 µmol/L, PKCθ.
Assay [3] concerns the target panel of 255 wild-type kinases (Homo sapiens, UniProt P24723). The conditions noted are these: kinase PKCη; 1 µmol/L single concentration; read-out: %-inhibition at 1 µmol/L, PKCη.
Assay [4] has as its target panel of 255 wild-type kinases (Homo sapiens, UniProt Q8IY84). The conditions noted are these: NIM1K; 1 µmol/L single concentration; read-out: %-inhibition, NIM1K.
For assay [5], the target named is panel of 255 wild-type kinases (Homo sapiens, UniProt Q9P1W9). The conditions noted are these: kinase PIM2; 1 µmol/L single concentration; read-out: %-inhibition at 1 µmol/L, PIM2.
In assay [6] the target is panel of 255 wild-type kinases (Homo sapiens, UniProt Q9Y5S2). The settings on record: MRCKβ; 1 µmol/L single concentration; read-out: %-inhibition, MRCKβ.
The target of assay [7] is T1, panel of 255 wild-type kinases (Homo sapiens, UniProt Q13043).
T1 sequence (Q13043 1-487): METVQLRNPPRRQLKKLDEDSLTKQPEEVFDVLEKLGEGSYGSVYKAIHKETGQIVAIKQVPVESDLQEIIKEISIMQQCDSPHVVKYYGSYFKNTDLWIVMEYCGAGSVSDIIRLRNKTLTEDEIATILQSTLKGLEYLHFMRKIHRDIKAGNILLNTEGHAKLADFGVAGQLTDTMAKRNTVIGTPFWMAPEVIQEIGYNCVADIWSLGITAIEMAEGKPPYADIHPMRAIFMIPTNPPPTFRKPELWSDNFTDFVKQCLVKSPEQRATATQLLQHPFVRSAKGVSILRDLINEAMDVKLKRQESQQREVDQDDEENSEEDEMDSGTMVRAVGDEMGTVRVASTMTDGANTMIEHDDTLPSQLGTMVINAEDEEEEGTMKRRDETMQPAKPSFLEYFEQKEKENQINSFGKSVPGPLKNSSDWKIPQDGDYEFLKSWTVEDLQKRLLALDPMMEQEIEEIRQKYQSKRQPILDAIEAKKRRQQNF
The conditions noted are these: MST1; 1 µmol/L single concentration; read-out: %-inhibition, MST1.

Assay [8] has as its target panel of 255 wild-type kinases (Homo sapiens, UniProt P22694). The conditions noted are these: kinase PKACβ; 1 µmol/L single concentration; read-out: %-inhibition at 1 µmol/L, PKACβ.
Assay [9] concerns the target panel of 255 wild-type kinases (Homo sapiens, UniProt Q9H2X6). The settings on record: kinase HIPK2; 1 µmol/L single concentration; read-out: %-inhibition at 1 µmol/L, HIPK2.
The target of assay [10] is T2, panel of 255 wild-type kinases (Homo sapiens, UniProt Q9UF33).
T2 sequence (Q9UF33 23-1036): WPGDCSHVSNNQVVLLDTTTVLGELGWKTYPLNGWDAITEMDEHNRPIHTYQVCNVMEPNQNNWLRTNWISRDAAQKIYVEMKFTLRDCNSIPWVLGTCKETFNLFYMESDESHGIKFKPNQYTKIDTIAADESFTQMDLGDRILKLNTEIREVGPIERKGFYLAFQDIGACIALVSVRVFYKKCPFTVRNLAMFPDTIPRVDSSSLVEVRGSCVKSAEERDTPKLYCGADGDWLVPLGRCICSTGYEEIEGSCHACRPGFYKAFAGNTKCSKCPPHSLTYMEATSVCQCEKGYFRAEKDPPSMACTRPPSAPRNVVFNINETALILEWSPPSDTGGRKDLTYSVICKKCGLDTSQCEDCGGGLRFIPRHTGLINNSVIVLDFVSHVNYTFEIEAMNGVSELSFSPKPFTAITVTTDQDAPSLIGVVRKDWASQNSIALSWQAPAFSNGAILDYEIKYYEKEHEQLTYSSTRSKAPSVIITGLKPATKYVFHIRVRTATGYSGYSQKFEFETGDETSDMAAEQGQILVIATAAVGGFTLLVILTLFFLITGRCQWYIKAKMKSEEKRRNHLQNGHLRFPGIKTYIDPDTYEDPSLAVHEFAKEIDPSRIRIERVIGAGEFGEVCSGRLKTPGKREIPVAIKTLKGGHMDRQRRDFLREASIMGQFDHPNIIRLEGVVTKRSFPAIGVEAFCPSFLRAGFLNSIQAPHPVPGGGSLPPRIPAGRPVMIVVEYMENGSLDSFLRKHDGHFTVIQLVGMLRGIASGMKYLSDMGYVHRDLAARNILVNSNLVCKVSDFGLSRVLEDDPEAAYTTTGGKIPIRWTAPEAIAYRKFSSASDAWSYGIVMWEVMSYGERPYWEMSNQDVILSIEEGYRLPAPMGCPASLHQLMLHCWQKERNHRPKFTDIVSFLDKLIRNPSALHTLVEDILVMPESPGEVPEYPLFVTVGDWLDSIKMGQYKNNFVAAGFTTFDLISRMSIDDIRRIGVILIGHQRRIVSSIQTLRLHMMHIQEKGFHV
The settings on record: kinase EPHA6; 1 µmol/L single concentration; read-out: %-inhibition at 1 µmol/L, EPHA6.

Assay [11] addresses T3, panel of 255 wild-type kinases (Homo sapiens, UniProt Q9NWZ3).
T3 sequence (Q9NWZ3 1-460): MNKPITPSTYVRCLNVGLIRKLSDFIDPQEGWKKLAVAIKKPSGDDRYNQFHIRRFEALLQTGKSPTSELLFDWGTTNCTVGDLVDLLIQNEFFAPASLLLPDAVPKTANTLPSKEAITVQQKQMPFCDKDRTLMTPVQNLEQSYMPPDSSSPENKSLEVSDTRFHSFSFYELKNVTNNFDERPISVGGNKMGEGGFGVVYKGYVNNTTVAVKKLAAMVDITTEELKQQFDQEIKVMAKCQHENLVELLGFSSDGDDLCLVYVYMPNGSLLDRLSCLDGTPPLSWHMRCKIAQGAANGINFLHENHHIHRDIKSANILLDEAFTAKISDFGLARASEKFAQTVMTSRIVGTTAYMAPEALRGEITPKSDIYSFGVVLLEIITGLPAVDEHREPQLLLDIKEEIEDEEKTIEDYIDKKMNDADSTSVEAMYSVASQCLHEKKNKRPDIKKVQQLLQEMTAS
The settings on record: kinase IRAK4; 1 µmol/L single concentration; read-out: %-inhibition at 1 µmol/L, IRAK4.

SMILES strings stand for the structures.

As for `CCc1nc(C(N)=O)c(Nc2ccc(N3CCC(N4CCN(C)CC4)CC3)c(OC)c2)nc1NC1CCOCC1` [gilteritinib], the inhibition at 1 µM in [1] was 6%; in assay [2], 12%; in [3], 13%; in [4] it was 29%; in assay [5], -1.37%; in [6], 47%. The inhibition at 1 µM in assay [7] worked out at 92%; in assay [8], 22%; in assay [9], 84%; in [10], 94%; in [11], 79%.
`O=C(Nc1cnn2ccc(N3CCC[C@@H]3c3cc(F)ccc3F)nc12)N1CC[C@H](O)C1` [larotrectinib]: the inhibition at 1 µM was -3.36% in assay [1]; -2.77% in assay [2]; 1.58% in [3]; -1.85% in assay [4]; -6.57% in assay [5]; -2.21% in [6]. For the same compound, the inhibition at 1 µM in [7] is -4%; in assay [8], -14%; in assay [9], -0.39%; in assay [10], -0.585%; in [11], 1.67%.

For the origin of these results see paper PMC9516332 (Frontiers in Oncology, 2022).
